Key:
isolated pig islets [1] = assay: In vitro islet functionality (24 hr incubation at G5, G15, G15+Fsk; insulin/glucagon RIA); format: cell-based; settings: for G15/G5 ratio of insulin secretion: native islets 1.16; for glucagon content, fold vs native islets: 50 mg/kg treated islets; for insulin secretion, fold vs 50 mg/kg treated islets / insulin secretion, fold vs native islets: islets from pigs treated with 30 mg/kg STZ; for glucagon secretion, fold in comparison to 0 mg/kg / glucagon secretion, fold in comparison to 30 mg/kg: islets from pigs treated with 50 mg/kg STZ
Protocol: The following steps were performed with the samples kept on ice. […] The samples were then sonicated 4×20 seconds (Sonifier B 12 [Branson Sonic Power Company, Danbury, Conn., USA]) and centrifugated 10 minutes at 4° C. at 1500 rpm. The first supernatant formed was removed and kept at −20° C. […] The samples were then kept at −20° C. overnight. After a step of centrifugation 10 minutes at 4° C. at 1500 rpm, the second supernatant was removed and kept at −20° C. […] The three supernatants were then pooled and constituted the pancreas extract. Human insulin specific RIA KIT and Glucagon RIA KIT (Millipore, Billerica, Mass., USA) were used for the determination of the hormonal content in human/pig pancreatic extractions as well as in isolated islets (see below). The content of insulin and glucagon in the extracts was performed following the instructions of the manufacturer. […] After incubation overnight at room temperature, 1 mL of precipitating reagent were added, followed by incubation 20 minutes at 4° C. The samples were then centrifuged 20 minutes at 2000-3000×g at 4° C.
Three replicates per concentration were performed. Media were thereafter recovered for insulin and glucagon quantification and islets were transferred in acid-ethanol for hormones extraction and quantification by radioimmuno-assay (see above).

isolated pig islets [2] = assay: Islet structure after isolation (histology of isolated islets from STZ-treated pigs); format: in vivo; settings: for proportion of beta-cells in islets: mean±SD, native 91.47±1.19
Protocol: (ii) Young pig islets treated with selected doses of STZ (0, 30, 50 mg/kg) were isolated following a method previously described by Dufrane et al, Xenotransplantation, 2006. Briefly, after being completely dissected, the pancreas were digested by a modified static digestion method: infusion of the pancreas with Liberase DL Research Grade (Roche/Boehringer Mannheim, Brussels, Belgium; 0.43 mg/mL) dissolved in modified UW solution; placement in a sterile 1 L Nalgene jar for digestion by static incubation at 37° C. for 30-50 minutes; filtration in a 500 μm filter; purification in a ficoll grade (densities 1.090, 1.060 and 1.010) (Mediatech Cellgro); washing and suspension of the islets in Ham-F10 (Gibco)+10% New Born Calf Serum (NCS; Merck-Eurolab, Overijse, Belgium).
The cellular composition of human and pig isolated islets was determined by immunohistochemistry. After overnight fixation in formol at room temperature, aliquots of islet preparations were embedded in paraffin and cut in 5 μm sections. Insulin and glucagon staining were performed as described above.
Alpha and β cells proportion and localization (for pig and human) inside islets were compared in isolated islets from 0, 30 and 50 mg/kg STZ pigs in 3 groups of 5 islets (50-99, 100-149 and 150-200 μm).

hamsters = settings: after STZ treatment; cited from earlier work
pigs = assay: Intravenous glucose tolerance test (IVGTT) in STZ-injected pigs; format: in vivo, pig
Protocol: […] STZ was solubilised in citrate buffer (25% v/v Na citrate, 23% v/v citric acid, 52% v/v H2O, pH 4.5) and filtered before injection in the external jugular vein (Dufrane, Transplantation, 2006).
Intravenous glucose tolerance tests (IVGTTs) were performed prior and 3 months after STZ injection under general anesthesia (induction by Zoletil (VIRBAC, Carros, France) IM at a dose of 6 mg/kg, maintained by intubation and inhalation of Enflurane (0-1.5%), nitrous oxide and oxygen. A catheter was introduced in the extern jugular vein and a solution of 0.5 g glucose/kg was injected. Blood samples were taken prior and 1, 3, 5, 10, 20, 30, 60, 90 minutes after complete injection of glucose. Glycaemia was measured on these samples (AccuChek, Roche, Brussels, Belgium) and serum was conserved for radioimmuno assay (RIA) quantifications (insulin, c-peptide).

[3] = STZ 30 mg/kg, isolated islets of 50-150 μm
[4] = STZ 50 mg/kg, isolated islets of 50-150 μm
[5] = STZ 50 mg/kg, isolated islets of each size

CN(N=O)C(=O)N[C@H]1C(O)O[C@H](CO)[C@@H](O)[C@@H]1O (mixture of isomers) [STZ, Streptozotocin]
stimulation index increase in comparison to native islets (isolated pig islets [1]; 30 mg/kg STZ): 45% | G15/G5 ratio of insulin secretion (isolated pig islets [1]; 30 mg/kg STZ-treated islets): 1.68 | insulin content, times more than native islets (isolated pig islets [1]; 30 mg/kg STZ, G5 stimulation): 3.3 times | insulin content, times more than native islets (isolated pig islets [1]; 30 mg/kg STZ, G15 stimulation): 2.5 times | stimulation index increase in comparison to native islets (isolated pig islets [1]; 50 mg/kg STZ): 28% | G15/G5 ratio of insulin secretion (isolated pig islets [1]; 50 mg/kg STZ-treated islets): 1.49 | insulin content, times higher than native islets (isolated pig islets [1]; 50 mg/kg STZ, G5 stimulation): 1.5 times | insulin secretion increase in comparison with native pig islets (isolated pig islets [1]; 50 mg/kg STZ, G5 stimulation): 1.3 times | insulin content, times higher than native islets (isolated pig islets [1]; 50 mg/kg STZ, G15 stimulation): 1.4 times | insulin secretion increase in comparison with native pig islets (isolated pig islets [1]; 50 mg/kg STZ, G15 stimulation): 1.4 times | glucagon content, fold vs native islets (isolated pig islets [1]; G5): 7.9 × | glucagon content, fold vs native islets (isolated pig islets [1]; G15 stimulation): 10.4 × | increase of the secretion of glucagon by isolated pig islets (isolated pig islets [1]; after 30-50 mg/kg STZ): 1.3 to 3.0 × | increase of insulin release (isolated pig islets [1]; islet remodeling with low doses of STZ): 1.29 to 2.13 × | glucagon content, times higher than native islets (isolated pig islets [1]; islets from 30 mg/kg treated pigs, G5-G15 stimulations): 4.4 times | insulin secretion, fold vs 50 mg/kg treated islets (isolated pig islets [1]; G5 stimulation): 1.6 × | insulin secretion, fold vs native islets (isolated pig islets [1]; G5 stimulation): 2.1 × | insulin secretion, fold vs 50 mg/kg treated islets (isolated pig islets [1]; G15 stimulation): 1.5 × | insulin secretion, fold vs native islets (isolated pig islets [1]; G15 stimulation): 2.1 × | glucagon secretion, fold in comparison to 0 mg/kg (isolated pig islets [1]; G5 stimulation): 2.5 × | glucagon secretion, fold in comparison to 30 mg/kg (isolated pig islets [1]; G5 stimulation): 2.0 × | glucagon secretion, fold in comparison to 0 mg/kg (isolated pig islets [1]; G15 stimulation): 3.0 × | glucagon secretion, fold in comparison to 30 mg/kg (isolated pig islets [1]; G15 stimulation): 1.6 × | number of alpha cells per islet in comparison to humans (isolated pig islets [2]; [3]): higher number of alpha cells | proportion of beta-cells in islets (isolated pig islets [2]; [3]): 60.46±3.70 | proportion of alpha cells per islet in comparison to humans (isolated pig islets [2]; STZ 30 mg/kg, isolated islets of 100-150 μm): higher proportion of alpha cells | number of beta cells per islet in comparison to humans (isolated pig islets [2]; STZ 30 mg/kg, isolated islets of 100-200 μm): higher number of beta cells | number of beta cells in comparison to humans (isolated pig islets [2]; [4]): higher | proportion of beta-cells in islets (isolated pig islets [2]; [4]): 60.46±4.55 | alpha cell proportion in comparison to humans (isolated pig islets [2]; [5]): higher alpha cell proportion | number of alpha cells per islet in comparison to humans (isolated pig islets [2]; [5]): higher number of alpha cells | number of beta cells in comparison to humans (isolated pig islets [2]; STZ 50 mg/kg, large isolated islets (150-200 μm)): similar | decrease of β-cells (proportion) (isolated pig islets [2]; STZ 30-50 mg/kg): 30% | increase of α-cells (isolated pig islets [2]; STZ 30-50 mg/kg): ~300% | α-cells in remodeled pig islet (isolated pig islets [2]; STZ 30-50 mg/kg): 30% | β-cells in remodeled pig islet (isolated pig islets [2]; STZ 30-50 mg/kg): 60% | glucagon content (hamsters): increased | AUC for IVGTT curves (pigs; STZ 150 mg/kg): significant higher AUC | glucose metabolism (IVGTT curves) (pigs; STZ 30, 50, 75 and 100 mg/kg, single injection, IVGTT 3 months after, vs control animals): not sufficient to induce dysfunction in glucose metabolism | glucose uptake (IVGTT) (pigs; STZ 30-50 mg/kg): did not affect glucose uptake
